According to patent US20240299358A1, “COMPOSITIONS AND METHODS FOR DIAGNOSIS AND TREATMENT OF AUTOIMMUNE DISEASES” (DUKE UNIVERSITY, priority 2021, published 2024):

Legend:
[1] = system: eHsp90; experiment: Flow cytometry uptake of fluor-tethered Hsp90 inhibitors by T cells from human PBMCs; format: cell-based
Experimental: T-cell activation: PBMC aliquots (ZenBio SER-PBMC-F) were washed in RPMI-1640 with 10% FBS and PSG and then rested overnight in a T-75 flask. The suspended cells were then transferred to a fresh flask and activated in fresh RPMI-1640/10% FBS/PSG by 3:20,000 anti-CD3 (BioLegend 317303), 3:20,000 anti-CD28 (BioLegend 302913), and 1:10,000 (30 IU/mL) human IL-2 (CST 8907SC) and incubated for up to 72 hours. In the experiments with longer activation, samples were diluted 1:3 into fresh media containing hIL-2 at 72 hours post initial stimulation with CD3/CD28 antibodies.
Flow Cytometry: The activated/rested cells were plated into a 96-well round bottom plate and pelleted at low speed. Cells were resuspended in chilled media containing titrated HS-131 or HS-198 (in 1% DMSO) and stained for 30 minutes at RT. Fluorochrome tagged inhibitors and media were washed away with a PBS wash, followed by a PBS wash containing 3% NMS. Surface antibody stains were performed in 3% NMS/PBS for 30 minutes followed by PBS washes (2x). Samples were analyzed on BD FACSCanto II flow cytometer. Permeabilized samples were prepared as previously described followed by fixation in 4% Formaldehyde/PBS overnight at 4° C. Sample analysis was performed with Flowing Software and FlowJo.
A hallmark of T cell function is to proliferate rapidly in response to antigen presentation along with appropriate cytokine and costimulatory signaling. This leads to the induction of the chaperone machinery which is essential in facilitating this process. In some respects, antigen induced T cell proliferation may be analogous to oncogene driven metastasis. Therefore, to investigate whether proliferating T cells similarly express eHsp90 during T cell activation, their ability to absorb fluor-tethered Hsp90 inhibitors following an anti-CD3/CD28 challenge was examined (see. FIGS. 2A-2E). The structures of two types of fluor-tethered Hsp90 inhibitors (HS-131 and […]) that were used in the present studies are shown in FIG. 2A. […]

[2] = system: eHsp90; experiment: In vivo tracking of eHsp90 expression in CIA mouse model of RA (flow cytometry, CryoViz imaging); details: 6 hours post tail vein injection, CD4 and CD8 T cells (FIG. 5B)
Experimental: FIG. 5A is a schematic of CIA mouse model of RA experimental design, wherein mice were inoculated with CIA on day 0) and 21. […] 6-hours post treatment mice were whole body cryopreserved. […] Gated regions indicate CD4 and CD8 T-Cell populations isolated from individual mice. eHsp90 expression in CD4 and CD8 T cells 6 hours post HS-131 or HS-198 treatment. N=3+SD. Experiments represent 3 biological replicates.
CIA Disease: Collagen was prepared at 4 mg/ml in 0.01 N acetic acid. Equal volumes of 4 mg/ml collagen and 5 mg/ml Freund's complete adjuvant were emulsified by hand mixing with syringes for approximately 5 min, at which point a bead of this material holds its form when placed in water. On study days 0 and 21, animals were anesthetized with isoflurane and given intradermal injections of a total of 400 μg of type II collagen in Freund's complete adjuvant at the base of the tail.
CryoViz™ Imaging: Whole mice were imaged at 10.23 μm×10.23 μm in-plane resolution using an Olympus MVX-10 microscope with a 1X objective and 0.63× magnification and 40 μm section thickness, using the Cryo Viz™ (BioInVision, Inc., Cleveland, USA). CryoViz™ is a fully automated, serial sectioning-and-imaging system which provides 3-dimensional, tiled, microscopic anatomical bright field and molecular fluorescence images over large fields-of-view such as a whole mouse. Images were acquired using a dual band FITC/TxRed fluorescence filter (Chroma, Inc., Rockingham, VT), a liquid crystal RGB filter and a low-noise monochrome camera. Raw images acquired by the Cryo Viz™ were processed to generate 3D color anatomical brightfield and molecular fluorescence volumes using the Cryo Viz™ Preprocessor software (BioIn Vision, Inc., Cleveland, Ohio). These 3D volumetric image data were then processed using the CryoViz™ 3D Visualizer software (BioInVision, Inc., Cleveland, USA) to obtain 3D reconstructed brightfield and fluorescence volume renderings and movies with 2D slice cutaway animations, showing the 2D/3D biodistribution of TxRed labeled HS-131 within the mouse volume.
This was consistently seen in cell culture, tumor cell xenografts and mouse models of spontaneous metastatic disease (Barrott et al. Chem Biol 20. 1187-1197 (2013)). […] To determine if this phenomenon occurred within the context of a fully functional immune system, the collagen induced arthritic (CIA) mouse model of human rheumatoid arthritis (RA) was utilized (Rice et al. Arthritis Rheum 58. 3765-3775 (2008)). Mice (DBA/IlacJ ˜8 weeks old) reliably develop polyarthritis when immunized against bovine type II collagen (Scarneo et al. Arthritis Res Ther 21, 292 (2019): Campbell et al., Ann Rheum Dis 56, 364-368 (1997)). The disease that occurs is usually non-symmetric, and any combination of paws/joints may be affected. Mice were injected […] with bovine collagen at Day (and then again 21 days later (FIG. 5A). This second injection triggered the development of the CIA related symptoms over the next several days within the joints. A primary mediator of local inflammatory responses in autoimmunity are invading T cell populations recognizing foreign antigens. To determine if invading T cells at sites of active disease expressed eHsp90, the animals were injected with HS-131 or HS-198. This was done at the peak of RA symptoms following the second immune challenge. After 6 hours, the animals were euthanized, immediately cryo-frozen in liquid nitrogen and cryo-sectioned (see, FIG. 5A).
Approximately, 500 40 μm slices were made and each slice imaged with both bright field and by fluorescence at Ex640 nm/Em680 nm. Evaluation of the biodistribution was then made by histological examination of individual slices and after in silico reconstruction of the entire mouse anatomy (see, FIGS. 5B-5E).

SMILES	uptake of inactive analogue by stimulated T cells ([1]; 10 μM (FIG. 2D))	probe signal (eHsp90 expression) in T cells of PBMC populations from CIA mice by flow cytometry [2]	fluor signal on competition with Hsp90 inhibitor ([1]; saturating dose, 10-fold excess of ganetespib over 10 μM HS-131 (FIG. 2D))
Cc1nn(-c2ccc(C(=O)N(C)C)c(NCCCOCCOCCOCCOCCOCCCNCc3ccc(C(=C\C=C4/N(CCCCS(=O)(=O)O)c5ccccc5C4(C)C)/C=C/C4=[N+](CCCCS(=O)(=O)[O-])c5ccccc5C4(C)C)cc3)c2)c2c1C(=O)CC(C)(C)C2 [HS-198]	minimal uptake	No signal	–
CC(C)c1cc(-c2n[nH]c(=O)n2-c2ccc3c(ccn3C)c2)c(O)cc1O [ganetespib, reference compound]	–	–	effectively blocked
